Columns and labels:
AdipoR1 [1] = biological target: T1, AdipoR1 (Homo sapiens, UniProt Q96A54); test: Measurement of AMPK phosphorylation ability (Assay 1), HEK 293T cells, Western blotting; type: cell-based; parameters: HEK 293T cells (ATCC; CRL-3216, medium; host or cells: HEK 293T; conditions: 10 minutes
T1 sequence (Q96A54 1-375): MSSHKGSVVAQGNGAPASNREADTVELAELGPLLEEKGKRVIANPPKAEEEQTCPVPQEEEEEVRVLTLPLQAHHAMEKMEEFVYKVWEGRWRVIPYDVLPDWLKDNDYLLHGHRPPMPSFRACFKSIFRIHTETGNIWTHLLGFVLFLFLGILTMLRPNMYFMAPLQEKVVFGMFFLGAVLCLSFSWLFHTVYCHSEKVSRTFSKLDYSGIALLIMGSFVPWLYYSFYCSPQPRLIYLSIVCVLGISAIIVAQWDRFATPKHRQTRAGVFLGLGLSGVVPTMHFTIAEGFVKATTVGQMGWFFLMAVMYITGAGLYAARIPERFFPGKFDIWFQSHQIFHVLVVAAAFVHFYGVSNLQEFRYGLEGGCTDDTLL
Procedure: The AMPK phosphorylation ability of the respective compounds according to the present invention was measured by using differentiated C2C12 cells or HEK 293T cells.
HEK 293T cells (ATCC; CRL-3216, medium; DMEM, Fetal Bovine Serum (FBS)) were cultured in a 12- or 24-well plate until they reached 100% confluency (37° C., 5% CO2).
After starvation, a test compound listed in Tables 10 and 11 (concentration: 25 μM, 50 μM) was added thereto, and after 10 minutes, the medium was discarded and the plate was frozen with liquid nitrogen.
To the 12- or 24-well cell plate which had been frozen was added 100 or 150 μL of Cell lysis buffer pH 7.4 (50 mM HEPES (pH 7.4), 2 mM sodium orthovanadate, 10 mM sodium pyrophosphate, 10 mM NaF, 2 mM EDTA, 2 mM EGTA, 0.1% (v/v) NP-40, 0.2 mM PMSF), and the cells were scraped off with a cell scraper, suspended and transferred into a micro centrifugal tube. And then, the cells were ultrasonically crushed (1 second×3 times) with a sonicator. Centrifugation was performed at 4° C. at 15,000 rpm for 15 minutes, and the supernatant was recovered into a new tube.
To 100 μL of the supernatant was added 25 μL of 5× sample buffer (280 mM Tris-HCl (pH 6.9), 40% glycerol, 10% (3-mercaptoethanol, 13% SDS, a small amount of bromophenol blue) and mixed together. The rest of the supernatant was used for protein quantification, and the protein concentrations were uniformed by adding 1× sample buffer depending on the concentration of each sample.
An electrophoresis chamber was filled with 1× SDS buffer (25 mM Tris-HCl, 250 mM glycine, 0.1% SDS), and the sample was applied to a well of polyacrylamide gel. Electrophoresis was performed until the bromophenol blue in the sample reached to the bottom of the gel.
A filter paper was soaked in 1× Transfer buffer sufficiently, above which the PVDF membrane and the gel after electrophoresis were stacked in this order, and thereabove a filter paper which had been soaked in 1× Transfer buffer sufficiently was further stacked, from which an air was removed and the resultant was set in semi-dry type transfer apparatus and transferred (7V, 35 minutes).
An unnecessary portion of the blotted membrane was cutoff, and the rest was immediately soaked in blocking buffer (5% skimmed milk in Rinse buffer), and shaken at room temperature at 40 rpm for 3 hours.
After blocking, the membrane was transferred into Rinse buffer, and washed at room temperature for 10 minutes while shaking. The membrane was soaked in a primary antibody solution (AMPK alpha Antibody (Cell signaling; #2532) 1/1,000 in Rinse buffer, Phospho-AMPK alpha (Thr172) (40H9) antibody (Cell signaling; #2535) 1/1,000 in Rinse buffer), and shaken at 4° C. at 40 rpm overnight.
The membrane was soaked in a secondary antibody solution (goat anti-rabbit IgG-HRP Antibody (Santa Cruz; sc-2030) 1/2,000 in Rinse buffer), and shaken at room temperature at 40 rpm for 1 hour.
After the membrane was washed for 45 minutes in the same way as after the primary antibody reaction, the membrane was soaked in a chemiluminescent reaction solution (ECL Western Blotting Detection Reagents, GE Healthcare) for about 1 minute. An excess of the reaction solution was removed, and then the membranes were arranged on a transparent film and sandwiched with it, with which an X-ray film was exposed in a darkroom (for about several seconds to 60 seconds) to develop the film.
The X-ray film was scanned to take the image, for which the band was measured by using the image analysis software “Image J” to determine the respective amounts of pAMPK and AMPK.

AdipoR1 [2] = biological target: T1, AdipoR1; test: Measurement of AMPK phosphorylation ability (Assay 2), HEK 293T cells with unrelated or AdipoR1 siRNA; type: cell-based; parameters: HEK 293T cells (ATCC; CRL-3216, medium; host or cells: HEK 293T
Procedure: HEK 293T cells (medium; DMEM, 10% FBS) were cultured in a 24-well plate until they reached 60% confluency (37° C., 5% CO2).
First, 1 μL of Lipofectamine RNAiMAX and 50 μL of OPTI-MEM were mixed, and then 5 μM siRNA (sense siRNA sequence: […]tt (SEQ ID NO: 1)) and 50 μL of OPTI-MEM were mixed and the resultants were left to stand at room temperature for 5 minutes. And then, the 1 μL Lipofectamine RNAiMAX/50 μL OPTI-MEM and the 5 μM siRNA/50 μL OPTI-MEM were mixed, and the resultant was left to stand at room temperature for 10 minutes, which was added to the cells.
After 5 minutes, the medium (DMEM, 10% FBS) was replaced, and after starvation on the next day, a test compound listed in Tables 10 and 11 was added thereto. After 10 minutes, the medium was discarded and the plate was frozen with liquid nitrogen.
The respective amounts of pAMPK and AMPK were determined in the same way as in the above Assay 1.

pAMPK/AMPK (%) (AdipoR1 [1]; 25 μM) | pAMPK/AMPK (%) (AdipoR1 [1]; 50 μM) | pAMPK/AMPK (ratio) siRNA, AdipoR1 siRNA (AdipoR1 [2]) [ratio] | pAMPK/AMPK (ratio) siRNA, unrelated siRNA (AdipoR1 [2]) [ratio] | SMILES
83.12 | 102.94 | 3.75 | 2.58 | O=C(COc1ccc(C(=O)c2ccc(Cl)cc2)cc1)NC1CCN(Cc2ccccc2)CC1 [Compound 11]
106.36 | 82.93 | 2.47 | 2.51 | O=C(COc1ccc(C(=O)c2ccccc2)cc1)NC1CCN(Cc2ccc(Cl)cc2)CC1 [Compound 12]
88.71 | 88.18 | 3.49 | 3.27 | COc1cc(C(C)=O)ccc1OCC(=O)NC1CCN(Cc2ccc(Cl)c(Cl)c2)CC1 [Compound 15]
83.61 | 95.02 | 3.75 | 3.88 | NC(=O)c1ccc(OCC(=O)NC2CCN(Cc3ccc(Cl)c(Cl)c3)CC2)cc1 [Compound 19]
81.11 | 83.12 | 1.92 | 2.34 | NC(=O)c1ccc(OCC(=O)NC2CCN(Cc3ccc(Br)cc3)CC2)cc1 [Compound 21]
122.70 | 89.75 | 2.35 | 2.49 | Cc1ccc(OCC(=O)NC2CCN(Cc3ccc(Cl)c(Cl)c3)CC2)cc1 [Compound 30]
80.60 | 80.60 | 2.61 | 3.17 | CCc1ccc(OCC(=O)NC2CCN(C(C)c3ccccc3)CC2)cc1 (centres unmarked) [Compound 31]
88.09 | 91.40 | 4.14 | 3.38 | O=C(COc1ccc(F)cc1)NC1CCN(Cc2ccc(Cl)c(Cl)c2)CC1 [Compound 32]
106.31 | 84.10 | 2.63 | 2.88 | O=C(COc1ccc(Cl)cc1)NC1CCN(Cc2ccc(Cl)c(Cl)c2)CC1 [Compound 33]
80.64 | 80.50 | 2.01 | 2.32 | O=C(COc1ccc(C(F)(F)F)cc1)NC1CCN(C(=O)c2ccccc2F)CC1 [Compound 34]
80.77 | 83.74 | 2.01 | 3.38 | COc1ccc(CN2CCC(NC(=O)COc3ccc(C(F)(F)F)cc3)CC2)cc1F [Compound 35]
80.42 | 84.19 | 2.56 | 2.52 | O=C(COc1ccc(Oc2ccccc2)cc1)NC1CCN(Cc2ccccc2)CC1 [Compound 36]
83.83 | 80.12 | 2.69 | 3.11 | COc1ccc(OCC(=O)NC2CCN(Cc3ccc(Cl)c(Cl)c3)CC2)cc1 [Compound 37]
62.79 | 69.84 | – | – | COc1ccc(CN2CCN(C(=O)CCNC(=O)c3ccc([N+](=O)[O-])cc3)CC2)cc1 [Compound 65]

The next lines start with the compound.

SMILES | pAMPK/AMPK (%) (AdipoR1 [1]; 25 μM) | pAMPK/AMPK (%) (AdipoR1 [1]; 50 μM) | pAMPK/AMPK (ratio) siRNA, AdipoR1 siRNA (AdipoR1 [2]) [ratio] | pAMPK/AMPK (ratio) siRNA, unrelated siRNA (AdipoR1 [2]) [ratio]
COc1ccc(CN2CCN(C(=O)CCNC(=O)c3ccc(Br)cc3)CC2)cc1OC [Compound 59] | 74.09 | 78.14 | – | –
COc1ccc(CN2CCN(C(=O)CCNC(=O)c3ccc(Cl)cc3)CC2)c(OC)c1OC [Compound 60] | 34.44 | 76.81 | – | –
CCOc1ccc(CN2CCN(C(=O)CCNC(=O)c3ccc(F)cc3Cl)CC2)cc1 [Compound 61] | 78.20 | 76.51 | – | –
COc1ccc(CN2CCN(C(=O)CCNC(=O)c3ccc(F)cc3F)CC2)cc1OC [Compound 62] | 72.75 | 80.92 | – | –
Cc1ccccc1CN1CCN(C(=O)CCNC(=O)c2ccc([N+](=O)[O-])cc2)CC1 [Compound 63] | 65.40 | 68.22 | – | –
COc1ccc(OC)c(CN2CCN(C(=O)CCNC(=O)c3ccc([N+](=O)[O-])cc3)CC2)c1 [Compound 66] | 43.00 | 55.80 | – | –
O=C(NCCC(=O)N1CCN(Cc2cccc(C(F)(F)F)c2)CC1)c1ccc([N+](=O)[O-])cc1 [Compound 67] | 70.98 | 70.70 | – | –
COc1ccc(CN2CCN(C(=O)CCNC(=O)c3ccc([N+](=O)[O-])cc3)CC2)cc1F [Compound 68] | 53.92 | 45.94 | – | –
COc1ccccc1CN1CCN(C(=O)CCNC(=O)c2ccc3ccccc3c2)CC1 [Compound 71] | 78.18 | 65.40 | – | –
COc1cccc(C(=O)N2CCN(CCC(=O)NC3CC3)CC2)c1 [Compound 72] | 42.05 | 46.92 | – | –

— patent publication US20170298051A1, “ACTIVATOR OF ADIPONECTIN RECEPTOR” (THE UNIVERSITY OF TOKYO, priority 2013, published 2017)
